Patent EP2974714B1, “USE OF DERIVATIVES WITH C-O-P BONDS IN PATIENTS WITH RENAL FAILURE” (LABORATORIS SANIFIT, S.L., priority 2013, dated 2014)

What was measured:
[1] = Release of IP6 from the HAP surface; assay type: binding; settings: after incubation for 2 days in IP6-free solution
Method: Experimental: 130 mg HAP was incubated in triplicate with 7.6 µM IP6, at 37°C, pH 7.4, for different time intervals while stirring continuously. Subsequently, the HAP with adsorbed IP6 was placed in an IP6-free solution and the amount of IP6 released from the surface thereof evaluated at different timepoints.

[2] = tested on: tissue calcification in a chronic renal impairment model (5/6 nephrectomised rats); assay: 5/6 nephrectomy model, IP6 by i.v. bolus; assay type: in vivo, SD rats; settings: i.v. bolus 1 or 5 mg/kg, 8 weeks
Method: Experimental: 48 SD rats were 5/6 nephrectomised by complete right lateral nephrectomy and 2/3 partial nephrectomy of the left kidney. 16 animals per group were treated intravenously (bolus) with 2 ml/kg saline, 1 mg/kg IP6 or 5 mg/kg IP6. The animals received a phosphate-rich diet (1% Ca, 1.2% P) containing 20% lactose. After 8 weeks the aorta, heart and remaining 1/3 kidney were collected, and the tissue calcium content determined.

[3] = tested on: tissue calcification in uraemic animals; assay: Adenine model, non-bolus-type intravascular administration; assay type: in vivo, male Wistar rats
Method: Experimental: CKD was induced in 2 groups (n=12) of male Wistar rats by oral (p.o.) treatment with adenine (600 mg/kg/day) daily for 10 days. After treatment with adenine, the rats received alpha-calcidol at a dose of 300 ng/kg (3x/week, p.o.) until day 28. From day 0 until sacrifice (day 28), the animals were treated with an intravascular infusion of 50 mg/kg IP6 or saline for 4 hours. After 28 days the aorta and heart were collected, and the tissue calcium content determined.

[4] = PK profile of IP6 s.c. in rats with normal and diminished kidney function; assay type: in vivo, Wistar rats
Method: Experimental: a single s.c. dose (10 mg/kg) was administered to rats with normal kidney function. Plasma samples were obtained at different timepoints up to 60 minutes. A different group of Wistar rats received oral treatment with adenine 600 mg/kg (p.o.) for 10 days to induce renal impairment. Alpha-calcidol (300 ng/kg) was administered on days 11 and 13 and plasma samples were collected at different timepoints up to 60 minutes on day 14. The plasma IP6 concentrations were quantified for both groups.

[5] = tested on: vit D-induced cardiovascular calcification in rats; assay: Inhibition of vit D-induced (300,000 IU/kg x 3) cardiovascular calcification by s.c. IP6; assay type: in vivo, male SD rats
Method: Experimental: male SD rats were divided into 9 groups. Two of said groups (sham and control groups) received s.c. saline 2 ml/kg; 6 groups received s.c. […] One group was treated with a s.c. Alzet pump loaded with 200 mg/ml IP6. Calcification was induced by oral administration of 300,000 IU/kg vitamin D (2 ml/kg) for 3 days starting on treatment day 3. […] The calcium content in heart, aorta and kidneys was determined after treatment for 7 days.

proteins = assay: Binding of IP6 to proteins (dialysability); assay type: in vitro ADME
cardiovascular function = assay: Cardiovascular function after bolus-type intravenous administration in conscious dogs by telemetry; assay type: in vivo
Method: Experimental: 4 male dogs, 2 per dose, were injected with 10, 15 and 30 mg/kg. Two washout days were introduced between the different doses. The ECGs were recorded telemetrically. Blood ionic calcium concentrations were determined on different days to the ECG measurements.

[6] = intravascular infusion of 50 mg/kg for 4 hours, 28 days, adenine uraemic rats
[7] = normal Wistar rats, single s.c. dose 10 mg/kg
[8] = uraemic rats (adenine), s.c. 10 mg/kg

## O=P(O)(O)O[C@H]1[C@H](OP(=O)(O)O)[C@@H](OP(=O)(O)O)[C@H](OP(=O)(O)O)[C@@H](OP(=O)(O)O)[C@H]1OP(=O)(O)O [IP6, inositol hexaphosphate]
[1]
  IP6 remaining bound to the HAP surface: 80%
[2]
  calcification inhibition (aorta, heart, remaining kidney): no evidence of calcification inhibition
[3]; due to high metabolic rate, 50 mg/kg infusion, uraemic rats
  reduction of plasma IP6 levels by the end of the experiment: 90%
[3]; [6]
  reduction in average calcification in the aorta: 80%
  reduction in average calcification in the heart: 85%
[4]; [7]
  duration of measurable levels: at least 30 minutes
  peak concentration (plasma IP6): 7.4 µM
  time of peak concentration post-administration: 15 min
[4]; [8]
  peak concentration (plasma IP6): 1.8 µM
  time of peak concentration post-administration: 5 min
[5]; prolonged administration, s.c. Alzet pump loaded with 200 mg/ml IP6
  reduction in calcification: 85%
[5]; s.c. doses of 60 and 100 mg/kg
  efficacy (inhibition of calcification): approximately 60%
[5]; s.c., 7 days treatment
  minimum dose that produced a significant effect on calcification: 10 mg/kg
[5]; s.c., dose-response
  EC50 for inhibition of aortic calcification: 3.75 mg/kg
  Emax for inhibition of aortic calcification: 65.5%
proteins
  binding of IP6 to proteins: 70-90%
  compound available to be dialysed: 10-30%
Cardiovascular function; i.v. bolus
  dose above which mild tachycardia and prolonged QTc interval were observed: above 15 mg/kg
  dose above which tachycardia and QTc prolongation become significant: above 30 mg/kg
Cardiovascular function; i.v. bolus 10 mg/kg
  effects on ECG parameters or ionic calcium concentrations: no significant effects
Cardiovascular function; i.v. bolus, correlated with the prolonged QTc interval
  decrease in ionic calcium: 30%
